{"source": "patent US20060264509A1", "about": "“Methods for treating pain using smooth muscle modulators and a2 subunit calcium channel modulators” (priority 2003, published 2006)", "key": {"beta-adrenergic blocking": {"tested_on": "beta-adrenergic blocking", "settings": "cited from earlier work"}, "bladder capacity": {"tested_on": "bladder capacity", "experiment": "Dilute acetic acid irritative model, bladder capacity by cystometry in urethane-anesthetized rats", "assay_type": "in vivo, rat", "settings": "for effectiveness of drug alone on bladder capacity: i.v.; for effective dose range of the drug in the isobologram combinations compared with the drug alone: individual animals, return to 31% of saline control", "protocol": "Subsequently, three series at markedly lower doses and at different dose ratios were performed for the purposes of isobologram construction (n=4/group).\nSubsequent studies aimed at isobologram construction combined the drugs in dose combinations as shown in the table below (low, middle and high doses for each drug paired).\nThe abdominal cavity was moistened with saline and closed by covering with a thin plastic sheet in order to maintain access to the bladder for emptying purposes.\nBladder capacity data for each animal were normalized to “% Recovery from Irritation,” and this index was used as the measure of efficacy. Data from experiments in which each of the drugs were administered alone were utilized to create theoretical populations of additive effects for each dose (low, mid and high), and these were compared by one-tailed t-test (individual dose comparisons) and by 2-Way ANOVA (across doses) to the actual combination drug data. The means and standard deviations of each individual treatment's “dose-matched” (low, middle, and high) responses were added together to estimate the mean and standard deviation of the theoretical additive populations for which to compare to the actual data obtained from the combination experiments. The theoretical additive effect population N=(Nantimuscarinic+Nα28 subunit modulator)−1. P<0.050 was considered significant.\nIsobologram construction consisted of two methods, both utilizing the same data, but plotting the results either as group means or by individual responses. […] When utilizing individual responses for both drugs alone and the combinations listed in the above table, the target value was 31% of saline control. […] For statistical purposes, the data were analyzed making comparisons for each drug, regardless of whether alone or in combination."}, "[1]": {"settings": "for pharmacokinetic drug-drug interaction between oxybutynin and gabapentin: rat, i.v. 3 mg/kg oxybutynin and 100 mg/kg gabapentin"}, "[2]": {"tested_on": "nociception induced by formalin and carrageenan; mechanical hyperalgesia and mechanical/thermal allodynia", "settings": "Rose et al. (2002); cited from earlier work"}, "[3]": {"tested_on": "painful symptoms associated with diabetic peripheral neuropathy, post-herpetic neuralgia, and neuropathic pain", "settings": "double-blind, placebo-controlled trials; cited from earlier work"}, "[4]": {"settings": "preclinical and clinical studies, cited from earlier work"}, "[5]": {"settings": "analyte gabapentin in rat plasma, i.v. 100 mg/kg gabapentin alone (Gab) or with 3 mg/kg oxybutynin (Com), group Mean"}, "[6]": {"settings": "analyte gabapentin in rat plasma, i.v. 100 mg/kg gabapentin alone (Gab) or with 3 mg/kg oxybutynin (Com), group Mean, outliers excluded"}, "[7]": {"settings": "analyte gabapentin in rat plasma, i.v. 100 mg/kg gabapentin alone (Gab) or with 3 mg/kg oxybutynin (Com), individual animals"}}, "note": "Several values for one entry are separate records, joined by “and”; a condition that tells them apart may be missing. Equal entries are not always repeated. Where two headings read alike, the source gives them in different places.", "data": [{"smiles": "CC(C)NCC(O)COc1cccc2ccccc12", "note": "(stereo not drawn) [propranolol]", "values": [{"measurement": "potency of L-enantiomer relative to D-enantiomer", "setting": "beta-adrenergic blocking", "result": 100, "unit": "times"}]}, {"smiles": "CCN(CC)CC#CCOC(=O)C(O)(c1ccccc1)C1CCCCC1", "note": "(stereo not drawn) [Oxy, 4-diethylaminio-2-butynyl phenylcyclohexyglycolate]", "values": [{"measurement": "effectiveness of drug alone on bladder capacity", "setting": "bladder capacity", "result": "modest effectiveness"}, {"measurement": "effective dose range of the drug in the isobologram combinations compared with the drug alone", "setting": "bladder capacity", "result": "significantly lower"}, {"measurement": "pharmacokinetic drug-drug interaction between oxybutynin and gabapentin", "setting": "[1]", "result": "No evidence of drug-drug interaction"}]}, {"smiles": "NCC1(CC(=O)O)CCCCC1", "note": "[Gab, 1-(aminomethyl) cyclohexaneacetic acid]", "values": [{"measurement": "effectiveness of drug alone on bladder capacity", "setting": "bladder capacity", "result": "modest effectiveness"}, {"measurement": "effective dose range of the drug in the isobologram combinations compared with the drug alone", "setting": "bladder capacity", "result": "significantly lower"}, {"measurement": "AUC0-∞", "setting": "[1]; [5]", "result": "1.62e+07", "unit": "ng·min/mL"}, {"measurement": "CL", "setting": "[1]; [5]", "result": 0.391, "unit": "L/h/kg"}, {"measurement": "Vz", "setting": "[1]; [5]", "result": 1.242, "unit": "L/kg"}, {"measurement": "t1/2", "setting": "[1]; [5]", "result": 128, "unit": "min"}, {"measurement": "AUC0-t", "setting": "[1]; [6]", "result": "9.45e+06", "unit": "ng·min/mL"}, {"measurement": "Cmax", "setting": "[1]; [6]", "result": 98.6, "unit": "µg/mL"}, {"measurement": "AUC0-∞", "setting": "[1]; [7]", "result": "1.95e+07", "unit": "ng·min/mL"}, {"measurement": "CL", "setting": "[1]; [7]", "result": 0.307, "unit": "L/h/kg"}, {"measurement": "Tmax", "setting": "[1]; [7]", "result": "15 min and 30 min"}, {"measurement": "Vz", "setting": "[1]; [7]", "result": "0.91 L/kg and 0.89 L/kg"}, {"measurement": "comparison of Cmax and AUC0-T data for gabapentin between single-drug group and combination (Com) group", "setting": "[1]; rat plasma, i.v., Table 2", "result": "no appreciable difference"}, {"measurement": "pharmacokinetic drug-drug interaction between oxybutynin and gabapentin", "setting": "[1]", "result": "No evidence of drug-drug interaction"}, {"measurement": "effect in neuropathic pain models of mechanical hyperalgesia and mechanical/thermal allodynia", "setting": "[2]", "result": "inhibitory effect"}, {"measurement": "effect on nociception induced by formalin and carrageenan", "setting": "[2]", "result": "block the tonic phase of nociception"}, {"measurement": "efficacy for painful symptoms associated with diabetic peripheral neuropathy, post-herpetic neuralgia, and neuropathic pain", "setting": "[3]", "result": "effective treatment"}]}, {"smiles": "CC(OC(=O)NCC1(CC(=O)O)CCCCC1)OC(=O)C(C)C", "note": "(stereo not drawn) [XP13512]", "values": [{"measurement": "blood levels of gabapentin across a broad range of oral doses", "setting": "[4]; oral", "result": "dose proportional"}, {"measurement": "absorption from the large intestine", "setting": "[4]", "result": "absorbed efficiently"}]}, {"smiles": "CCNCC#CCOC(=O)C(O)(c1ccccc1)C1CCCCC1", "note": "(stereo not drawn) [desethyl oxybutynin, N-desethyl-oxybutynin]", "values": [{"measurement": "comparison of Cmax and AUC0-t data for desethyl oxybutynin between oxybutynin (Oxy) group and combination (Com) group", "setting": "[1]; rat plasma, i.v., Table 4", "result": "no appreciable difference"}]}]}
